Patent publication EP0728012B1, “NOVEL GnRH ANALOGUES WITH ANTITUMOUR EFFECTS AND PHARMACEUTICAL COMPOSITIONS THEREOF” (Lovas, Sandor, priority 1994, dated 1996)
Non-standard residues stand in square brackets, D forms with d. Residues, ends and D or L forms follow the SMILES beside them. Groups on a side chain read outwards from the residue. *: point of attachment. dPhe(4-Cl) = N[C@H](Cc1ccc(Cl)cc1)C(=O)O; NEt2 = CCN(CC)*

How the values were obtained:
MCF-7 [1] = format: cell-based, human; conditions: MCF-7 ER-positive; after 6 days' treatment; dose not stated
Description: (§1) After being treated with trypsin, 300.000 each of MCF-7, MDA-MB-231, PC3 or Ishikawa cells, respectively, were passed into Petri dishes of 10 cm in diameter. Starting from the day following the setting, the cells were treated with 1-50 µM of the GnRH analogue in the exponential growth phase. During the experiment lasting for 5 days, the cells were treated in every two days with the peptide hormone dissolved in the nutrient medium, then the cell count was determined on the sixth day.

MDA-MB-231 [2] = format: cell-based, human; conditions: MDA-MB-231 ER-negative; after 6 days' treatment; dose not stated
Description: as §1

human tumour cell lines [3] = format: cell-based; conditions: 30 µM
Description: as §1

Ishikawa [4] = test: Inhibition of colony formation by GnRH analogues (dose-survival, Example 48); format: cell-based, human; conditions: 50 µM
Description: (§2) The examination gives accurate information about the cell-damaging effect of the substance tested as a function of varying doses. The treatment was carried out once; the colonies formed from the surviving cells were counted after 8 - 12 days. […] A part of the arrested cells again entered the cycle, another part of them might be destroyed (apoptosis). […] In the case of a dose-response investigation, colonies containing less than 15 cells were not counted. 300 cells were put into each Petri dishes of 3.5 cm in diameter. The treatment was once carried out 24 hours after setting, then the colonies formed were counted after 8 - 12 days. The cells were treated once after 24 hours with 1-50 µM of various GnRH analogues of Examples above or with 1 - 50 µM of GnRH-III, respectively. The percentages of inhibition obtained on MCF-7, MDA-MB-231, PC3 and Ishikawa cells, respectively, together with the dose of the active agent used are shown in Table VIII.

MCF-7 [5] = test: as above; format: cell-based, human; conditions: treated once
Description: as §2

PC3 [6] = test: as above; format: cell-based, human
Description: as §2

MDA-MB-231 [7] = test: as above; format: cell-based, human
Description: as §2

human tumour cell lines [8] = test: Inhibition of colony formation (Example 48), comparison with the control D-Trp^6-hGnRH; format: cell-based; conditions: data of Table VIII
Description: as §2
In these studies the D-Trp^6-hGnRH analogue (Sigma Co.) commonly used in the tumour therapy was employed as control.

[9] = tested on: MDA-MB-231 human mammary carcinoma cell line; test: Inhibition of colony formation (dose-survival relation, Example 18); format: cell-based; conditions: concentration not given
Description: (§3) In the case of cytostatics the cell-damaging effect is not cell-specific. […] One part of the arrested cells again go into the cycle, the other part may perish (apoptosis). […] The investigations were carried out on MCF-7 and MDA-MB-231 human mammary carcinoma cell lines, PC3 human prostate 15 carcinoma cell line and Ishikawa human endometrium carcinoma cell line. Three hundred cells were set into Petri dishes of 3.5 cm in diameter each. The treatment was carried out once, 24 hours following the explantation, then the colonies formed were counted after 9 to 12 days.

[10] = tested on: MCF-7 human mammary carcinoma cell line; test: as above; format: cell-based; conditions: concentration not given
Description: as §3

[11] = tested on: Ishikawa human endometrium carcinoma cell line; test: as above; format: cell-based
Description: as §3

[12] = tested on: PC3 human prostate carcinoma cell line; test: as above; format: cell-based
Description: as §3

cellular immune response = test: Cellular immune response (rosette formation against BRBC antigen); format: in vivo; conditions: mice; 100 µg/mouse
Text: (§4) The immunosuppressive side effect of cytostatics used in tumour therapy is commonly known. This effect can be compensated to a certain grade by various immunostimulants (endotoxin, levamisole). Polypeptides with much […] molecular weights (about 40,000 to 80,000) are also capable of protecting against immunosuppressive effect [Gaál et al: J. Biol. Resp. Modif., 5, 148-159 (1986)]. The molecular weight of the novel polyanionic P-GFLG-OH macromolecule tested by us is about 10,000, that of MI-1892 is about 2000, i.e. relatively low; therefore, their immunostimulatory activity was unexpected.

Ishikawa [13] = conditions: 30 µM, peptide alone, two treatments on days 2 and 4
Description: The procedure of treatment was as follows. After trypsinization the cells, 400,000 cells of MCF-7, MDA-MB-231 human mammary carcinoma, PC3 human prostate carcinoma or Ishikawa human endometrium tumour each were passed into Petri dishes of 10 cm in diameter. Starting from the day following transfer, the cells were treated with the substances to be tested in solution prepared with the nutrient medium during the exponential growth phase. The cultures were treated with 1 to 50 µM (calculated for the total volume of the culture) or MI-1544 GnRH antagonist, MI-1892 chicken GnRH antagonist or SJ-1004 GnRH […] on the 7th day.

MXT mouse mammary tumour = test: In vivo antitumour effect on mice bearing MXT mouse mammary tumour; design: species or system CBA/Ca mice
Description: The MXT mouse mammary carcinoma contains ER and PgR proteins; furthermore, it contains also GnRH receptors; therefore, this in vivo tumour model is suitable for studying both the direct and indirect effects. The treatment of mice bearing MXT mammary tumour was commenced on the day following transplantation. […] Table VI The animals were daily treated in s.c. route starting from the day following transplantation of MXT mouse mammary tumour. […] MI-1544: 75 µg/day/animal; MI-1892: 75 µg/day/animal.

MDA-MB-231 xenograft = test: In vivo antitumour effect on MDA-MB-231 xenograft in immunosuppressed mice; design: species or system CBA/Ca mice; conditions: Table V
Description: (§5) The immunosuppression of mice was carried out by using the method of Steel et al. [Br. J. Cancer, 37, 224-230 (1978)]. Immunosuppression and xeno-transplantation
(§6) CBA-Ca female mice of about 6 weeks old were thymectomized and then, after one week, they were irradiated with 60Co (whole body irradiation; the lethal dose is 9.5 Gray). Within 24 hours 3 to 5 x 10^5 myelocytes were injected into the animals. Beneath the skin of the immunosuppressed mice 2 x 10^7 tumour cells or, in the case of later passages, […] were implanted. […] The treatment with steroid hormone was stopped by at least one week before beginning the investigation.
(§7) Recent investigations have begun on 28 animals bearing MCF-7 xenograft and on 28 animals bearing MDA-MB-231 xenograft. On animals bearing MCF-7 tumour the treatment was commenced in the 5th week following xeno-transplantation; the tumour volume was 205 to 225 mm^3. On animals bearing MDA-MB-231 tumour, the treatment was started in the 4th week after xeno-transplantation with a tumour volume of 140 to 150 mm^3. […] The control groups were daily treated with physiological saline s.c. (Each treated group consisting of 7 animals).
A more recent study was started on 28 animals bearing MDA-MB-231 xenograft. The treatment was begun in the 4th or 5th week following xenotransplantation. The tumour volume was 0.165 to 0.194 cm^3. […] (For treatment of the control group, see the preceding Examples). Each group consisted of 7 animals.

PC3 [14] = test: In vitro inhibition of cell proliferation (Example 19); format: cell-based, human; conditions: 30 µM, peptide alone, two treatments on days 2 and 4
Description: The procedure of treatment was as follows. After trypsinization the cells, 400,000 cells of MCF-7, MDA-MB-231 human mammary carcinoma, PC3 human prostate carcinoma or Ishikawa human endometrium tumour each were passed into Petri dishes of 10 cm in diameter. Starting from the day following transfer, the cells were treated with the substances to be tested in solution prepared with the nutrient medium during the exponential growth phase. The cultures were treated with 1 to 50 µM (calculated for the total volume of the culture) or MI-1544 GnRH antagonist, MI-1892 chicken GnRH antagonist or SJ-1004 GnRH antagonist analogues as well as synthetic lamprey GnRH-III hormone every two days and the cell count was determined on the 7th day.

MCF-7 xenograft = test: In vivo antitumour effect on MCF-7 xenograft in immunosuppressed mice; design: species or system CBA/Ca mice; conditions: MCF-7 xenograft; for Tumour volume as control (%): MI-1892 2 x 25 µg
Description: as §5, §6
In the case of MCF-7 tumours (xenografts) the examinations were carried out with passages being in the phase of the 37th and 38th, respectively, transplantations.
In the case of mice bearing MCF-7 xenograft, the treatment was begun in the 4th week following xeno-transplantation.
as §7

humoral immune response = test: Humoral immune response (antibody production of B-lymphocytes); format: in vivo; conditions: mice
Text: as §4

[15] = MXT mouse mammary tumour, Treatment weeks: 13, 1x75 µg daily s.c.
[16] = MXT mouse mammary tumour, Treatment weeks: 20, 1x75 µg daily s.c.
[17] = treatment week 4, MI-1892 2x25 µg daily s.c.
[18] = treatment week 6, MI-1892 2x25 µg, conjugates 1x50 µg daily s.c.

## D-Phe^6-GnRH(1-9)-ethylamide [Ovurelin]
MCF-7 [1]
  inhibition (change in the cell count): 5-15%
MDA-MB-231 [2]
  inhibition of cell proliferation: 25-30%

## NCCCC[C@H](NC(=O)[C@H](Cc1c[nH]c2ccccc12)NC(=O)[C@H](Cc1c[nH]cn1)NC(=O)[C@@H]1CCC(=O)N1)C(=O)N[C@@H](Cc1c[nH]cn1)C(=O)N[C@@H](CC(=O)O)C(=O)N[C@@H](Cc1c[nH]c2ccccc12)C(=O)N[C@@H](CCCCN)C(=O)N1CCC[C@H]1C(=O)NCC(N)=O [6. Lys^4-GnRH-III, Lys^4-GnRH-III]
Human tumour cell lines [3]
  proliferation-inhibiting effect: 27-31%
Ishikawa [4]
  % Inhibition of the colony formation: 21%
MCF-7 [5]; 10 µM
  % Inhibition of the colony formation: 15%
MCF-7 [5]; 50 µM
  % Inhibition of the colony formation: 40%
PC3 [6]; 50 µM
  % Inhibition of the colony formation: 0%
PC3 [6]; within the dose range used (1-50 µM)
  inhibition of colony formation: did not influence
MDA-MB-231 [7]; 10 µM
  % Inhibition of the colony formation: 18%
MDA-MB-231 [7]; 50 µM
  % Inhibition of the colony formation: 35%
MDA-MB-231 [7]; 50 µM, listed as Example 31, 50 µM
  % Inhibition of the colony formation: 35-42%
Human tumour cell lines [8]
  inhibitory effect compared with the control D-Trp^6-hGnRH: exceeded the inhibitory effect of control
[9]
  inhibition of colony formation: 35%
[10]
  inhibition of colony formation: 40%
[11]; concentration not given
  inhibition of colony formation: 21%
[12]; concentration not given
  inhibition of colony formation: did not show any inhibition

## CCN(CC)C(=O)[C@H](CC(=O)N[C@@H](CC(C)C)C(=O)N[C@@H](CCC(N)=O)C(=O)N1CCC[C@H]1C(=O)N[C@H](C)C(N)=O)NC(=O)[C@H](CCCCN)NC(=O)[C@H](CO)NC(=O)[C@@H](Cc1c[nH]c2ccccc12)NC(=O)[C@@H](Cc1ccc(Cl)cc1)NC(=O)[C@@H](Cc1c[nH]c2ccccc12)NC(C)=O [MI-1892, Ac-D-Trp^1,3,D-Cpa^2,Lys^5,[β-Asp(DEA)]^6,D-Ala^10-hGnRH, reference compound] (Ac-[dW][dPhe(4-Cl)][dW]SKD([Leu-Gln-Pro-dA-NH2])-NEt2)
Cellular immune response
  increase of the cellular immune response: two-fold
Ishikawa [13]
  inhibition of proliferation: 14%
MXT mouse mammary tumour; [15]
  Inhibition %: 51%
  Tumour volume as control (%): 49%
MXT mouse mammary tumour; [16]
  Inhibition %: 39%
  Tumour volume as control (%): 61%
MXT mouse mammary tumour; day 9, 75 µg/day/animal s.c.
  Tumour volume (cm^3): 0.61 cm^3
  Tumour volume as control (%): 86%
MXT mouse mammary tumour; day 11, 75 µg/day/animal s.c.
  Tumour volume (cm^3): 1.05 cm^3
  Tumour volume as control (%): 58%
MXT mouse mammary tumour; day 13, 75 µg/day/animal s.c.
  Tumour volume (cm^3): 1.59 cm^3
  Tumour volume as control (%): 49%
MXT mouse mammary tumour; day 17, 75 µg/day/animal s.c.
  Tumour volume (cm^3): 3.17 cm^3
  Tumour volume as control (%): 62%
MXT mouse mammary tumour; day 18, 75 µg/day/animal s.c.
  Tumour volume (cm^3): 4.8 cm^3
  Tumour volume as control (%): 64%
MXT mouse mammary tumour; day 20, 75 µg/day/animal s.c.
  Tumour volume (cm^3): 5.73 cm^3
  Tumour volume as control (%): 61%
MXT mouse mammary tumour; day 24, 75 µg/day/animal s.c.
  Tumour volume (cm^3): 6.32 cm^3
  Tumour volume as control (%): 50%
MXT mouse mammary tumour; day 26, 75 µg/day/animal s.c.
  Tumour volume (cm^3): 11.30 cm^3
  Tumour volume as control (%): 82%
MDA-MB-231 xenograft; [17]
  Inhibition %: 24.5%
  Tumour volume as control (%): 75.5%
MDA-MB-231 xenograft; [18]
  Inhibition %: 22%
  Tumour volume as control (%): 78%
PC3 [14]
  inhibition of proliferation: 33%
MCF-7 xenograft; first study, end of 4th week, MI-1892 2 x 25 µg daily, conjugates 50 µg daily once
  decrease in the tumour volume in comparison to controls: 20%
MCF-7 xenograft; treatment week 4
  Tumour volume as control (%): 78.5%
MCF-7 xenograft; treatment week 6, conjugates 1 x 50 µg
  Tumour volume as control (%): 79%
Humoral immune response; 50 µg/mouse
  increase of the humoral immune response: more than two-fold
Humoral immune response; 100 µg/mouse
  increase of the humoral immune response: three-fold
[11]; 50 µM
  % Inhibition of colony formation: 10%
[12]; 50 µM
  % Inhibition of colony formation: 5%
